ChEMBL document CHEMBL4219144, “Novel 6-aryl substituted 4-pyrrolidineaminoquinazoline derivatives as potent phosphoinositide 3-kinase delta (PI3Kδ) inhibitors” (Bioorg Med Chem, 2018)

What was measured:
[1] = molecular target: T1, Phosphatidylinositol 4,5-bisphosphate 3-kinase catalytic subunit delta isoform (Homo sapiens) (UniProt O00329); assay: Inhibition of PI3K p110delta (unknown origin) at 100 nM using lipid substrate after 40 mins by kinase-Glo assay relative to control
T1 sequence (whole entry): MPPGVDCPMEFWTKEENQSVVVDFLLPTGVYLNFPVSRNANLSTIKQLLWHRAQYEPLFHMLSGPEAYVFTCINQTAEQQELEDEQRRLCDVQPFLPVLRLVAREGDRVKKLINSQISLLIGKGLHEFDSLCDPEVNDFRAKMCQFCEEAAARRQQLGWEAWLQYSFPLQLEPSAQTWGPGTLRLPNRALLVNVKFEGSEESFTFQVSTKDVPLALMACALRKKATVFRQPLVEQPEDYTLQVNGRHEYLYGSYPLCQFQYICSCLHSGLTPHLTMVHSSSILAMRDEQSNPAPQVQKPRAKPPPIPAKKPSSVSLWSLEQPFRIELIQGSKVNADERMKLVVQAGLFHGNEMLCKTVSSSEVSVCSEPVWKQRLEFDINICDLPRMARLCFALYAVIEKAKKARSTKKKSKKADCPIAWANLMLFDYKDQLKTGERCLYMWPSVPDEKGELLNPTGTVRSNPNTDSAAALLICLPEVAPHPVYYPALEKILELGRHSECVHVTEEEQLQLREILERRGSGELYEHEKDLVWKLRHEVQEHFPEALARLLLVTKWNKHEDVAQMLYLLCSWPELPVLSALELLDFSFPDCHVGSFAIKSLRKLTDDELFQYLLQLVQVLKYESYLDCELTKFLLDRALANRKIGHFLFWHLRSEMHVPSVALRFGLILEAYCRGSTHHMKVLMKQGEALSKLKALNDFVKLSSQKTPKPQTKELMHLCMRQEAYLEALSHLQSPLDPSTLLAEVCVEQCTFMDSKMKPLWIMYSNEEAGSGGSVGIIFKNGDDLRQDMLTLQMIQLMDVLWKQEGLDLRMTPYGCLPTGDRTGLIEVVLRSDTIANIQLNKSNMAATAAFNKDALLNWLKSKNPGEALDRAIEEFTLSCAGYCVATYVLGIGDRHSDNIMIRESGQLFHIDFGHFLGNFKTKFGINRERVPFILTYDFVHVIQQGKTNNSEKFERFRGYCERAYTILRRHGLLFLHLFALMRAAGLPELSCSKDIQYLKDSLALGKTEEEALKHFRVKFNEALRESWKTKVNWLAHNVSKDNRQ

[2] = molecular target: T2, Phosphatidylinositol 4,5-bisphosphate 3-kinase catalytic subunit delta isoform (Homo sapiens, UniProt O00329); assay: Inhibition of PI3K p110delta (unknown origin) using lipid substrate after 40 mins by kinase-Glo assay
T2 sequence (O00329 whole entry): T1 sequence (whole entry)

[3] = molecular target: Phosphatidylinositol 4,5-bisphosphate 3-kinase catalytic subunit beta isoform (Homo sapiens, UniProt P42338); assay: Inhibition of PI3K p110beta (unknown origin) using lipid substrate after 40 mins by kinase-Glo assay
[4] = test system: SU-DHL-6; assay: Antiproliferative activity against human SUDHL6 cells after 72 hrs by CCK8 assay; format: functional, cell-based; conditions: SU-DHL-6, 72 h
[5] = test system: RPMI-8226; assay: Antiproliferative activity against human RPMI8226 cells after 72 hrs by MTT assay; format: functional, cell-based; conditions: RPMI-8226, 72 h
[6] = test system: Raji; assay: cells; format: functional, cell-based; conditions: Homo sapiens, 72 h
Description: Antiproliferative activity against human Raji cells after 72 hrs by MTT assay

[7] = molecular target: Phosphatidylinositol 4,5-bisphosphate 3-kinase catalytic subunit alpha isoform (Homo sapiens, UniProt P42336); assay: Inhibition of PI3K p110alpha (unknown origin) using lipid substrate after 40 mins by kinase-Glo assay
[8] = molecular target: Phosphatidylinositol 4,5-bisphosphate 3-kinase catalytic subunit gamma isoform (Homo sapiens, UniProt P48736); assay: Inhibition of PI3K p110gamma (unknown origin) using lipid substrate after 40 mins by kinase-Glo assay
[9] = test system: Ramos; assay: cells; format: functional, cell-based; conditions: Homo sapiens, 72 h
Description: Antiproliferative activity against human Ramos cells after 72 hrs by MTT assay

[10] = Oral bioavailability in Sprague-Dawley rat at 3 mg/kg by LC-MS/MS analysis; format: ADME, organism-based; conditions: in vivo
[11] = AUC in Sprague-Dawley rat at 3 mg/kg, po by LC-MS/MS analysis; format: ADME, organism-based; conditions: in vivo
[12] = Cmax in Sprague-Dawley rat at 3 mg/kg, po by LC-MS/MS analysis; format: ADME, organism-based; set-up: dose 3 mg/kg, route oral; conditions: in vivo
[13] = molecular target: T2, Phosphatidylinositol 4,5-bisphosphate 3-kinase catalytic subunit delta isoform; assay: Inhibition of PI3Kdelta (unknown origin)
[14] = test system: Rattus norvegicus; assay: Clearance in Sprague-Dawley rat at 10 mg/kg, po by LC-MS/MS analysis; format: ADME, organism-based; conditions: in vivo
[15] = AUC in Sprague-Dawley rat at 10 mg/kg, po by LC-MS/MS analysis; format: ADME, organism-based; conditions: in vivo
[16] = Cmax in Sprague-Dawley rat at 10 mg/kg, po by LC-MS/MS analysis; format: ADME, organism-based; set-up: dose 10 mg/kg, route oral; conditions: in vivo
[17] = test system: Rattus norvegicus; assay: Half life in Sprague-Dawley rat at 10 mg/kg, po by LC-MS/MS analysis; format: ADME, organism-based; conditions: in vivo
[18] = test system: Rattus norvegicus; assay: Apparent volume of distribution in Sprague-Dawley rat at 10 mg/kg, po by LC-MS/MS analysis; format: ADME, organism-based; conditions: in vivo
[19] = species: Homo sapiens; assay: Selectivity ratio of IC50 for PI3K p110beta (unknown origin) to IC50 for PI3K p110delta (unknown origin)
[20] = species: Homo sapiens; assay: Selectivity ratio of IC50 for PI3K p110gamma (unknown origin) to IC50 for PI3K p110delta (unknown origin)
[21] = species: Homo sapiens; assay: Selectivity ratio of IC50 for PI3K p110alpha (unknown origin) to IC50 for PI3K p110delta (unknown origin)

Phosphatidylinositol 4,5-bisphosphate 3-kinase catalytic subunit alpha isoform, sequence (P42336 whole entry, canonical isoform): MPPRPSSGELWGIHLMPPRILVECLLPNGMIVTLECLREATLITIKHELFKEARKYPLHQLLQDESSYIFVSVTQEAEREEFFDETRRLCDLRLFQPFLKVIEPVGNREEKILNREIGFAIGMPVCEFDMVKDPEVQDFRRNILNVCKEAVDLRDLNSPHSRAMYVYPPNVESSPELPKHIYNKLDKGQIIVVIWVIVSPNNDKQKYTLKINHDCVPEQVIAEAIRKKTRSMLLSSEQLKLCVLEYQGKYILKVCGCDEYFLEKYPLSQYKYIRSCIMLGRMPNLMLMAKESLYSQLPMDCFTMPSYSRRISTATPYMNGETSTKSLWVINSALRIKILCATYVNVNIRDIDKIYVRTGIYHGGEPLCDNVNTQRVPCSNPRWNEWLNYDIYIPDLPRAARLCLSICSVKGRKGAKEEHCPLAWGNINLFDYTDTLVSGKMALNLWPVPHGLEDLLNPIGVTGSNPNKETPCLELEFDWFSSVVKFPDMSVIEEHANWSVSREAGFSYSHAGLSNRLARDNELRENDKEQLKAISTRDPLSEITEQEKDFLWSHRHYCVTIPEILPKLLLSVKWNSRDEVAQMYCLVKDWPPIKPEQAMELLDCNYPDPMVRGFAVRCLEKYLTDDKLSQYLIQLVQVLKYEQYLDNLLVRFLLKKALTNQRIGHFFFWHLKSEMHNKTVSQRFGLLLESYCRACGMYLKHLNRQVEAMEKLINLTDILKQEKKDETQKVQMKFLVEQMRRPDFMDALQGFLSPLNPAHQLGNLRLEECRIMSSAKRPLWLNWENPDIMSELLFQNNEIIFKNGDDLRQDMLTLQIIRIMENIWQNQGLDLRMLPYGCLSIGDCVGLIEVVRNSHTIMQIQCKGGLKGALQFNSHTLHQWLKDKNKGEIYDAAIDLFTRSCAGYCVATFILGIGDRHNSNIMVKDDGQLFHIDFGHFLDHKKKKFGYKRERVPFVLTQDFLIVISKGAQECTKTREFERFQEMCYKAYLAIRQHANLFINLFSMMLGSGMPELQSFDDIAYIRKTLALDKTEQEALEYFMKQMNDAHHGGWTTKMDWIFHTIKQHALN
Phosphatidylinositol 4,5-bisphosphate 3-kinase catalytic subunit gamma isoform, sequence (P48736 whole entry, canonical isoform): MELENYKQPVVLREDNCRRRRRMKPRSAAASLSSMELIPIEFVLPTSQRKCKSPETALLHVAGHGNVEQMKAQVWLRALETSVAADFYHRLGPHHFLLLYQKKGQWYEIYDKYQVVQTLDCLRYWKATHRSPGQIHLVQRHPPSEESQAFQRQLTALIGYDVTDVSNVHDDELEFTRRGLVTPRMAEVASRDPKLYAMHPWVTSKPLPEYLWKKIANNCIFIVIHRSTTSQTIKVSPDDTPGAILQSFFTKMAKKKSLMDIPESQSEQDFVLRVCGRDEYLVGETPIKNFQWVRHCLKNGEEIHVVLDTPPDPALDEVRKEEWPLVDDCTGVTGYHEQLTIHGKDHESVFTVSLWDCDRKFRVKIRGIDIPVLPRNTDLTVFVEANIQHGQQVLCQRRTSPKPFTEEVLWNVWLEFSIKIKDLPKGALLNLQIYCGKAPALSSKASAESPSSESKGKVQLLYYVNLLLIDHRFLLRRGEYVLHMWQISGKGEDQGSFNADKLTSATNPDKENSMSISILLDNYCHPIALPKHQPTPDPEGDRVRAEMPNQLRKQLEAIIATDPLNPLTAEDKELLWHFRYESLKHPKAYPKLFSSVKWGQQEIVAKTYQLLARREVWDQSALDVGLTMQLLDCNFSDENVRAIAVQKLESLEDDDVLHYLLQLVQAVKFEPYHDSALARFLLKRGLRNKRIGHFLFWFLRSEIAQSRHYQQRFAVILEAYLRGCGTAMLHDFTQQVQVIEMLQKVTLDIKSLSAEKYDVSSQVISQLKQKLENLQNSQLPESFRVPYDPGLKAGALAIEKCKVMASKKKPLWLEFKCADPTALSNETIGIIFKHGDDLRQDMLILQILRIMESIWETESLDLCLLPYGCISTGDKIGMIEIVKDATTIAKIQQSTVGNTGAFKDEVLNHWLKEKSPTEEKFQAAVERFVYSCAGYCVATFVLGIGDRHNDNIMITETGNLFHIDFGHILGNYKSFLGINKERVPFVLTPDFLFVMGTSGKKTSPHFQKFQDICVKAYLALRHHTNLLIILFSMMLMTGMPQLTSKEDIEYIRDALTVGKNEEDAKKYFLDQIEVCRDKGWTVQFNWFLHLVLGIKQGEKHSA
Phosphatidylinositol 4,5-bisphosphate 3-kinase catalytic subunit beta isoform, sequence (P42338 whole entry, canonical isoform): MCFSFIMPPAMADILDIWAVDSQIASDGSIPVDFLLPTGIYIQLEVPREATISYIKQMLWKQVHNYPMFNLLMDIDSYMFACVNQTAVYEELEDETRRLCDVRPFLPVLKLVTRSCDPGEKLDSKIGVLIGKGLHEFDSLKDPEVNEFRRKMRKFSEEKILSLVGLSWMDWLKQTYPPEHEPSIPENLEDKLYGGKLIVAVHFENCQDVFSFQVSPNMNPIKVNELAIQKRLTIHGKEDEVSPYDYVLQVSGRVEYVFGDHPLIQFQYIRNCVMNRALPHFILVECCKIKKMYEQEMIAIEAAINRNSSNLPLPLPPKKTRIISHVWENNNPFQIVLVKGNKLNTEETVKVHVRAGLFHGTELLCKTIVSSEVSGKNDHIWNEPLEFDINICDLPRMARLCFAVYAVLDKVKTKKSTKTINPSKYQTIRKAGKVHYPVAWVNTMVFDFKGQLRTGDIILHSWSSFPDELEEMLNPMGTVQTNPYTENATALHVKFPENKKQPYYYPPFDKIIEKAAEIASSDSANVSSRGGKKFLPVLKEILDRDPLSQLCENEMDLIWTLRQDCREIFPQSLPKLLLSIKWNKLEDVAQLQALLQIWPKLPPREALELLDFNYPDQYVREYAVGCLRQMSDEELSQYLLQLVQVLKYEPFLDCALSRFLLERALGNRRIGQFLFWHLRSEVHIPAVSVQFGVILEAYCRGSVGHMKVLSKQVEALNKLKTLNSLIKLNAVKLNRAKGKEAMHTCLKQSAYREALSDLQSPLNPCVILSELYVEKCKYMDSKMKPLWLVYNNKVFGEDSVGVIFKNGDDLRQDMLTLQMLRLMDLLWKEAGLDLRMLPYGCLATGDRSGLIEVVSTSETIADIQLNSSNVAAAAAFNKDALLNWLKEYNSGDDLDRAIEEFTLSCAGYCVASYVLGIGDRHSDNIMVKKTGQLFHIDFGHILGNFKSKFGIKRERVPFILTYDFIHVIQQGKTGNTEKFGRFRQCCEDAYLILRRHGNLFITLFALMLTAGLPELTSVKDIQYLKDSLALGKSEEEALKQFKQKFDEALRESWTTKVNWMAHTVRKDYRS

| Compound | inhibition [1] [%] | IC50 [2] [nM] | other results |
| --- | --- | --- | --- |
| COc1ccc(-c2ccc3ncnc(N[C@H]4CCN(C(C)=O)C4)c3c2)cn1 | 79 | – | – |
| COc1ccc(-c2ccc3ncnc(N[C@H]4CCN(C(=O)C5CCOCC5)C4)c3c2)cn1 | 97 | 3.4 | – |
| COc1ccc(-c2ccc3ncnc(N[C@H]4CCN(C(=O)C5CC5)C4)c3c2)cn1 | 97 | 4.5 | IC50 [3]: 220 nM; IC50 [4]: 500 nM; IC50 [5]: 1460 nM; IC50 [6]: 2130 nM; IC50 [7]: 25.4 nM; IC50 [8]: 224 nM; IC50 [9]: 520 nM |
| COc1ncc(-c2ccc3ncnc(N[C@H]4CCN(C(=O)OC(C)(C)C)C4)c3c2)cc1C#N | 88 | 18.7 | – |
| COc1ccc(-c2ccc3ncnc(N[C@H]4CCN(C(=O)C5CCCCC5)C4)c3c2)cn1 | 85 | 2.9 | – |
| COc1ccc(-c2ccc3ncnc(N[C@H]4CCN(C(=O)OC(C)(C)C)C4)c3c2)cc1C(N)=O | 74 | – | – |
| COc1ccc(-c2ccc3ncnc(N[C@H]4CCN(C(=O)CC(C)(C)C)C4)c3c2)cn1 | 94 | 4.6 | – |
| COc1ccc(-c2ccc3ncnc(N[C@H]4CCN(C(=O)C5CCC5)C4)c3c2)cn1 | 98 | 5.2 | – |
| CC[C@H](Nc1ncnc2[nH]cnc12)c1nc2cccc(F)c2c(=O)n1-c1ccccc1 [IDELALISIB] | 96 | – | bioavailability [10]: 39%; AUC [11]: 422 ng·h/mL; IC50 [4]: 650 nM; IC50 [5]: 5490 nM; IC50 [6]: 9950 nM; IC50 [9]: > 10000 nM; Cmax [12]: 129 ng/mL |
| COc1ccc(-c2ccc3ncnc(N[C@H]4CCN(C(=O)OC(C)(C)C)C4)c3c2)cn1 | 91 | 8.1 | – |
| COc1ccc(-c2ccc3ncnc(N[C@H]4CCN(C(=O)Cc5ccccc5)C4)c3c2)cn1 | 79 | – | – |
| NC(=O)c1cc(-c2ccc3ncnc(-c4cccc(C(=O)NCCN5CCOCC5)c4)c3c2)ccc1Cl | – | – | IC50 [13]: 17 nM |
| COc1ccc(-c2ccc3ncnc(N[C@H]4CCN(S(=O)(=O)C5CC5)C4)c3c2)cn1 | 83 | 13.5 | – |
| COc1ccc(-c2ccc3ncnc(N[C@H]4CCN(C(=O)C5CCCC5)C4)c3c2)cn1 | 97 | 4.4 | – |
| C=CC(=O)N1CC[C@H](Nc2ncnc3ccc(-c4ccc(OC)nc4)cc23)C1 | 0 | – | – |
| COc1ccc(-c2ccc3ncnc(N[C@H]4CCN(C(=O)c5ccco5)C4)c3c2)cn1 | 97 | 5.5 | – |
| COc1ncc(-c2ccc3ncnc(N[C@H]4CCN(C(=O)C5CC5)C4)c3c2)cc1C#N | 97 | 5.5 | – |

| Compound | inhibition [1] [%] | IC50 [2] [nM] | other results |
| --- | --- | --- | --- |
| COc1ncc(-c2ccc3ncnc(N[C@H]4CCN(C(=O)C5CCOCC5)C4)c3c2)cc1C#N | 99 | 2.7 | CL [14]: 40 mL/min/kg; AUC [15]: 524 ng·h/mL; Cmax [16]: 664 ng/mL; IC50 [3]: 264 nM; IC50 [4]: 4550 nM; IC50 [5]: 4340 nM; t1/2 [17]: 2.99 h; Vz [18]: 113 L/kg; IC50 [6]: > 10000 nM; IC50 [7]: 25.6 nM; Ratio IC50 [19]: 100; IC50 [8]: 174 nM; IC50 [9]: 570 nM; Ratio IC50 [20]: 65; Ratio IC50 [21]: 10 |
| COc1ccc(-c2ccc3ncnc(N[C@H]4CCNC4)c3c2)cn1 | 38 | – | – |
| COc1cc(C(N)=O)cc(-c2ccc3ncnc(N[C@H]4CCN(C(=O)OC(C)(C)C)C4)c3c2)c1 | 82 | – | – |
| CC(C)(C)OC(=O)N1CC[C@H](Nc2ncnc3ccc(-c4cnc(N)nc4)cc23)C1 | 44 | – | – |
| COc1ccc(-c2ccc3ncnc(N[C@H]4CCN(C(=O)C5CCOCC5)C4)c3c2)cc1C(N)=O | 92 | 7.8 | – |
| COc1ncc(-c2ccc3ncnc(N[C@H]4CCN(C(=O)C5CCOCC5)C4)c3c2)cc1[N+](=O)[O-] | 99 | 3.1 | IC50 [3]: 585 nM; IC50 [4]: 5970 nM; IC50 [5]: 2710 nM; IC50 [6]: 1480 nM; IC50 [7]: 26.7 nM; IC50 [8]: 199 nM; IC50 [9]: 780 nM |
| COc1ncc(-c2ccc3ncnc(N[C@H]4CCN(C(=O)OC(C)(C)C)C4)c3c2)cc1[N+](=O)[O-] | 51 | – | – |
| CC(C)(C)OC(=O)N1CC[C@H](Nc2ncnc3ccc(-c4ccc(N)nc4)cc23)C1 | 17 | – | – |
| CC(C)(C)OC(=O)N1CC[C@H](Nc2ncnc3ccc(-c4ccc(OC(F)(F)F)cc4)cc23)C1 | 2 | – | – |
| COc1ccc(-c2ccc3ncnc(N[C@@H]4CCN(C(=O)C5CCOCC5)C4)c3c2)cn1 | 46 | – | – |
| COc1ccc(-c2ccc3ncnc(N[C@@H]4CCN(C(=O)OC(C)(C)C)C4)c3c2)cn1 | 0 | – | – |
| O=C(C1CC1)N1CC[C@H](Nc2ncnc3ccc(-c4ccc(OC(F)(F)F)cc4)cc23)C1 | 13 | – | – |
| O=C(CCCCCCC(=O)Nc1ccccc1)NO [VORINOSTAT] | – | – | IC50 [5]: 660 nM |
| COc1ccc(-c2ccc3ncnc(N[C@H]4CCN(C(=O)C(C)(C)C)C4)c3c2)cn1 | 79 | – | – |
| COc1ccc(-c2ccc3ncnc(N[C@H]4CCN(C(=O)C5CC5)C4)c3c2)cc1C(N)=O | 84 | – | – |
| COc1ccc(-c2ccc3ncnc(N[C@H]4CCN(C(=O)c5ccccc5)C4)c3c2)cn1 | 87 | 3 | – |
